{
  "source": "patent US20090186827A1",
  "about": "“Process of inhibiting cell death in injured cartilage” (The Scripps Research Institute, priority 2001, published 2009)",
  "key": {"[1]": {"test_system": "bovine cartilage explants", "experiment": "Glycosaminoglycan (GAG) release assay, mechanically injured bovine cartilage explants", "format": "cell-based", "conditions": "loaded bovine explants treated with caspase inhibitor", "experimental": "Glycosaminoglycan release assay. To estimate GAG depletion and release, the concentration of sulfated glycosaminoglycans was measured using […] (DMMB) as a monitor of spectrophotometric changes which occur during the formation of the sulfated GAG dye complex (Farndale, et al. (1986) Biochim. Biophys. Acts. 883, 173-177, Goldberg, et al. (1993) Agents Actions 39 Spec No, C163-C165). For GAG content measurement, samples were digested in papain and collagenase and the concentration of sulfated GAG measured using DMMB. To generate a standard curve, chondroitin-6-sulfate (Sigma, St. Louis, Mo.) was used at concentrations between 1 and 200 μg/ml. GAG released in media was normalized to the pooled mean GAG content of Control (uninjured) cartilage explants and expressed as a percentage of total GAG content.\nInhibition of apoptosis. To determine whether apoptosis could be prevented by caspase inhibition, 12 explants were loaded at 23 MPa (High Load) and cultured for 48 hours. […] Percent apoptosis and GAG release in media was measured as described above.\nRelease of sulfated glycosaminoglycans (GAG) was analyzed as a measure of the extent of damage sustained by the explant. […] GAG depletion was assessed by dimethylene blue binding assays of the culture supernatants and this correlated with the reduced of safranin O staining of the cartilage sections."}, "[2]": {"test_system": "bovine cartilage explants", "experiment": "Load-induced chondrocyte apoptosis (TUNEL) in bovine cartilage explants", "format": "cell-based", "text": "Cartilage explants. Macroscopically normal weight bearing portions of freshly slaughtered skeletally mature bovine femoral condyles were selected from animals between 2 and 6 years of age (Animal Technologies, Austin, Tex.). Only joints without visible signs of degeneration or aging were selected. Using sterile techniques, full thickness cartilage was separated from underlying subchondral bone with a scalpel and 5 mm diameter cylindrical explants, ranging from 1 to 1.8 mm in height, cored out using a dermal punch (Acuderm, Inc., Ft. Lauderdale, Fla.). Explants taken from adjacent sites were used as matched controls for each group in each experiment to minimize variation in cartilage response due to differences in thickness and location within the joint. Each explant was weighed and allowed to stabilize at 37° C. and 5% CO2 for 48 hours in 1 ml of Dulbecco's modified Eagle's medium (DMEM) supplemented with 10% fetal bovine serum (FBS), L-glutamine, antibiotics and 50 μg/ml ascorbic acid.\n(§1) Loading apparatus and procedure. […] Stress and strain data were recorded during the test.\nApoptosis detection. […] TUNEL positive cells emit a bright green fluorescence while TUNEL negative cells display an orange color due to propidium iodide counterstaining. […] Cells in all areas were counted and divided into TUNEL positive or TUNEL negative. […]"}, "human cartilage explants": {"test_system": "human cartilage explants", "experiment": "Load-induced chondrocyte apoptosis (TUNEL) in human cartilage explants", "format": "cell-based", "conditions": "loaded explants (30% strain) cultured in 100 mM z-VAD.fmk after injury, 96 hours post-injury", "text": "Cartilage explants. Macroscopically normal tibial and femoral articular surfaces were selected from human cadaver donors between 18 and 45 years of age. Using sterile techniques, full thickness cartilage was separated from underlying subchondral bone with a scalpel. 5 mm diameter cylindrical explants, ranging from 2 to 2.8 mm in thickness, cored out using a dermal punch (Acuderm, Inc., Ft. Lauderdale, Fla.). Explants taken from adjacent sites were used as matched controls for each group in each experiment to minimize variation in cartilage response due to differences in thickness and location within the joint. […]\nas §1\nCaspase inhibition. […] Percentage apoptosis was measured at 96 hours post-injury in three groups (control, loaded, and loaded with z-VAD.fmk) with ten explants each in two separate experiments.\nApoptosis detection. […] This was detected by immunohistochemical staining with M30 (Cytodeath, Boehringer Mannheim, Eugene, Oreg.), a monoclonal antibody that recognizes the neo-epitope exposed in early apoptosis.\nChondrocyte apoptosis after mechanical injury to human cartilage. […] GAG release and percentage of cells undergoing apoptosis were measured at 96 hours after injury. […]"}, "[3]": {"test_system": "femoral and tibial articular cartilage", "experiment": "Intraarticular injection of caspase inhibitor in rabbits with anterior cruciate ligament transection (ACLT)", "format": "in vivo, New Zealand White rabbits", "experimental": "Intraarticular injection of caspase inhibitor in rabbits with ligament transection. A pilot study was performed to assess feasibility and efficacy of caspase inhibition in vivo. Eight New Zealand White rabbits were divided into anterior cruciate ligament transection (ACLT) and ACLT+caspase inhibitor (CI) groups. Both groups underwent bilateral ACLT. The ACLT+CI group was treated with intra-articular injections of 25 μg of z-VAD.fmk three times per week for six weeks while the control group received saline injections. Rabbits were euthanised at six weeks and femoral and tibial articular cartilage evaluated by India ink staining and histologic Mankin grading after Safranin-O stain."}},
  "note": "Entries after “also recorded” stand apart in the source; their conditions may differ. Where a SMILES comes first, the peptide text is derived from it. The star is where a group is joined. Cbz = O=C(OCc1ccccc1)*; CH2F = FC*",
  "data": [
    {"smiles": "COC(=O)CC(NC(=O)C(C)NC(=O)C(NC(=O)OCc1ccccc1)C(C)C)C(=O)CF", "note": "(stereo not drawn) [z-VAD.fmk, benzyloxycarbonyl-Val-Ala-Asp (OMe) fluoromethylketone] (Cbz-Val-Ala-Asp(OMe)-CH2F; configuration not given here)", "values": [
      {"measurement": "GAG release / GAG depletion (in words)", "setting": "[1]", "value": "reduction in GAG release; also recorded: normalization of the GAG depletion"},
      {"measurement": "reduction in the apoptosis rate", "setting": "[2]; high and intermediate load groups", "value": "> 50", "unit": "%"},
      {"measurement": "chondrocyte apoptosis after mechanical injury (in words)", "setting": "[2]; loaded bovine explants, z-VAD.fmk 100 μM, 48 hours", "value": "reduced chondrocyte apoptosis"},
      {"measurement": "reduction in apoptotic rates", "setting": "human cartilage explants", "value": 50, "unit": "%"},
      {"measurement": "reduction of the size of the cartilage lesions (surface area, India ink stained femoral condyles)", "setting": "[3]; 25 μg intra-articular three times per week for six weeks, bilateral ACLT", "value": "~80", "unit": "%"},
      {"measurement": "cartilage lesions under India ink examination (in words)", "setting": "[3]; ACLT+CI group, six weeks", "value": "lesions that were smaller in area"},
      {"measurement": "knees with Mankin grade 5 or higher", "setting": "[3]; ACLT+CI group, six weeks, 4/8 knees", "value": 50, "unit": "%"}
    ]}
  ]
}
